The results in this text go back to US10392391B2 (Vertex Pharmaceuticals Incorporated, priority 2012, dated 2019).

Experiment [1] has as its target ATR kinase (full-length ATR) (Homo sapiens (Human), UniProt Q13535). Put plainly: ATR inhibition assay (radioactive-phosphate incorporation). The note with it: Ki(app), 5 nM full-length ATR, 10 μM ATP, 25° C. Format: biochemical. The essentials: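 Ki(app) was fitted by non-linear regression to background-corrected initial rates. Full-length ATR (5 nM) phosphorylated 800 μM peptide using 10 μM [γ-33P]ATP at 25° C in Tris/HCl pH 7.5 buffer with MgCl2, DTT and 7% DMSO. After 10-minute compound pre-incubation and 24-hour reaction, phosphocellulose filters were scintillation counted.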

In experiment [2] the test system is HCT116 colorectal cancer cells. Put plainly: Cisplatin sensitization assay, 96 h cell viability (MTS). The class given is cell-based. The note with it: 96 h MTS, concentration of compound required to reduce the IC50 of Cisplatin. The protocol: Compounds can be screened for their ability to sensitize HCT116 colorectal cancer cells to Cisplatin using a 96 h cell viability (MTS) assay. […] Compounds and Cisplatin are then both added simultaneously to the cell media in 2-fold serial dilutions from a top final concentration of 10 μM as a full matrix of concentrations in a final cell volume of 200 μl, and the cells are then incubated at 37° C. in 5% CO2. After 96 h, 40 μl of MTS reagent (Promega G358a) is added to each well and the cells are incubated for 1 h at 37° C. in 5% CO2.
Compounds with a Cisplatin sensitization value of <0.02 μM are marked with “+++.” Compounds with a Cisplatin sensitization value >0.02 μM but <0.2 μM are marked with “++.” Compounds with a Cisplatin sensitization value >0.2 μM but <5 μM are marked with “+.”

ATR kinase (full-length ATR), sequence (Q13535 whole entry): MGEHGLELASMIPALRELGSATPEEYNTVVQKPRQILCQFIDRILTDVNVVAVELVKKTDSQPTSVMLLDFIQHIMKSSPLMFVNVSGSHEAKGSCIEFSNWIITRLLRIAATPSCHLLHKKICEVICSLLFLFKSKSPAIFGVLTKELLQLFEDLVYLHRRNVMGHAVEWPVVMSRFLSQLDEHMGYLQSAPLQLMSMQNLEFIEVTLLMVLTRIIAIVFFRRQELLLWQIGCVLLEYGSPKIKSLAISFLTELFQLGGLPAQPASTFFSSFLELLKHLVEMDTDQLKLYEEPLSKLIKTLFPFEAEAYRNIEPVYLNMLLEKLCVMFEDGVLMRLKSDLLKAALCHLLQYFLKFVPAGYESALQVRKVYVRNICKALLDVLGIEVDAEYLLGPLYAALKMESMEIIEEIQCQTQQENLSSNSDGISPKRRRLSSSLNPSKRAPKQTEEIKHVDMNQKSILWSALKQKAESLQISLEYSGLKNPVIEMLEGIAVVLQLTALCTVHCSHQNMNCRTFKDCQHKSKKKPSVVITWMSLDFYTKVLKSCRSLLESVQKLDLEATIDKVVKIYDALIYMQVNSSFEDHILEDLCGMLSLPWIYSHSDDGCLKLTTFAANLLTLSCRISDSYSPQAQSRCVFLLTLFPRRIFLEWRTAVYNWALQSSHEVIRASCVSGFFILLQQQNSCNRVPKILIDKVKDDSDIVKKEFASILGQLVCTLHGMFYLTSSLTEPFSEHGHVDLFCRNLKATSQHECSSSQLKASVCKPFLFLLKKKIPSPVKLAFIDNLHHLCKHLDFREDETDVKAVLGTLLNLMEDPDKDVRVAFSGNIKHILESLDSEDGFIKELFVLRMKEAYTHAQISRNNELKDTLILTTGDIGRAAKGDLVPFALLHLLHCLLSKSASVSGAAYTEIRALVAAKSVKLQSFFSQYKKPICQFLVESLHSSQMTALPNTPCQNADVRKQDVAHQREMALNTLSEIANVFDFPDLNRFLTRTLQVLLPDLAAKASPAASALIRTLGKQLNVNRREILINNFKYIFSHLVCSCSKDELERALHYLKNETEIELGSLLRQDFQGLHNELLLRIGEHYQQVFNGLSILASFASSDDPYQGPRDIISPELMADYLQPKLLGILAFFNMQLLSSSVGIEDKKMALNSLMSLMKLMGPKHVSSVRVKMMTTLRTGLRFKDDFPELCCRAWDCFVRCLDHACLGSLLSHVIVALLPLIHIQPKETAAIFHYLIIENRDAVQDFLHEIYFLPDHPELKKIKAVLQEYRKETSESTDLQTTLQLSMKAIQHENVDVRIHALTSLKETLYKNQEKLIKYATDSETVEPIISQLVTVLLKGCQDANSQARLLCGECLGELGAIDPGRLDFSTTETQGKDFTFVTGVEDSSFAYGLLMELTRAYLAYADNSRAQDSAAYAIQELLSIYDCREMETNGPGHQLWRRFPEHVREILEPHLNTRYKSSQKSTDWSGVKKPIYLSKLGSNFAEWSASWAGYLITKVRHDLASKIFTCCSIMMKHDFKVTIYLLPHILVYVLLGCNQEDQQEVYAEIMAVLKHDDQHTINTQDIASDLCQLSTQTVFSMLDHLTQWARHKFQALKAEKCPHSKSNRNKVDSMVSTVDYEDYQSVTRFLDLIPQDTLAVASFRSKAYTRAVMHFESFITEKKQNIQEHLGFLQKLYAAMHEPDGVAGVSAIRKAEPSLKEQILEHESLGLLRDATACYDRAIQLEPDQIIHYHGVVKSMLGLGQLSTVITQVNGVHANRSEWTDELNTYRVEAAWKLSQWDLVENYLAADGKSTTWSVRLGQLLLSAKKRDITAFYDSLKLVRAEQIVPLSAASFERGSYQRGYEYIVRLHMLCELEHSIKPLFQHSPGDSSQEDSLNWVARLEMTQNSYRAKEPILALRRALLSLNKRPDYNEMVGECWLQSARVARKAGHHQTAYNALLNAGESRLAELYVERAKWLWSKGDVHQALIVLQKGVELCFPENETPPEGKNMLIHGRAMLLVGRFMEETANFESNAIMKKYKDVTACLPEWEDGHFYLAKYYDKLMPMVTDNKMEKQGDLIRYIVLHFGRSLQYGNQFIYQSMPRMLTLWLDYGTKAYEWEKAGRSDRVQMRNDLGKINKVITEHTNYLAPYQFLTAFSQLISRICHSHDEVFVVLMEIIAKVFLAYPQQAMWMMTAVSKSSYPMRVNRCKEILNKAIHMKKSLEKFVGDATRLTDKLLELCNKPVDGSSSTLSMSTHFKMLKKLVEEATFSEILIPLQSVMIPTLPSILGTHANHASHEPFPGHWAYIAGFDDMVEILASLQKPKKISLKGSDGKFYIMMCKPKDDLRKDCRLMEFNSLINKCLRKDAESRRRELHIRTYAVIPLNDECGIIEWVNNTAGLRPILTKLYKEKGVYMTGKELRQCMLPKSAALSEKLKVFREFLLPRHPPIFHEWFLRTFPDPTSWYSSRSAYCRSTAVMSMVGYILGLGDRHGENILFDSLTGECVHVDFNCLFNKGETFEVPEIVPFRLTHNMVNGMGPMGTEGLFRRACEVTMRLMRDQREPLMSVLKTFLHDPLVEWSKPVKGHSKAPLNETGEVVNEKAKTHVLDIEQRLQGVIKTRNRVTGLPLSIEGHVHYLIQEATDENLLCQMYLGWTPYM

On to `CNCCCN(C)C(=O)C1CCN(c2c(F)cncc2NC(=O)c2c(N)nn3cc(F)cnc23)CC1` [I-G-17], for which the Ki in experiment [1] was in the range of 1 to 5 µM. Besides, the “Cisplatin Sensitization Assay” value in experiment [2] is on record as “+ (Compounds with a Cisplatin sensitization value >0.2 μM but <5 μM are marked with “+.”)”.
